Data set [1] has as its system OCN expression in Saos-2 cells. Kind of data set: Saos-2 osteoblast differentiation, RT-qPCR. It is filed as cell-based, human. To be noted: 0.5 and 1 μM, along 3 weeks, osteogenic medium. Here is the method: (§1) Four days after seeding, Saos-2 cells were exposed to specific osteogenic medium (IMDM supplemented with 2% FBS, 5 mM β-glycerophosphate, and 50 μg/mL ascorbic acid, Sigma-Aldrich, Milan, Italy) without (control) or with MC3353 (0.5–1 μM) or DAC (0.1–0.5 μM) and maintained in differentiating conditions for up to 21 days. The medium was renewed every 4 days, and the cells were harvested at various time points to collect total RNA and verify bone mineralization. Specific osteoblastic markers were evaluated by quantitative real-time PCR (RT-qPCR) as previously described. The primers or assays (Applied Biosystems, Foster City, CA, USA) used are as follows: GAPDH (forward: 5′-[…]-3′, reverse: 5′-[…]-3′ and probe: 5′-[…]-3′), OCN (forward: 5′-[…]-3′, reverse: 5′-[…]-3′), ALP (Hs01029144_m1), and COL1A2 (Hs01028970_m1). Amplification reactions were performed using a ViiA7™ Real-Time PCR System (Life Technologies, Carlsbad, CA, USA). To visualize bone mineralization (osteoblastic differentiation) after 7–21 days of MC3353 or DAC treatment, the plates were stained with 40 mM Alizarin red stain (ARS, Sigma-Aldrich, Milan, Italy). ARS staining was visualized with an ECLIPSE 90i microscope (Nikon, Minato, Tokyo, Japan) equipped with Plan fluor 10× NA 0.3. Images were acquired with an autocapture setting using a digital color camera (Nikon DS5 MC) and NIS-Elements AR3.10 software (Nikon, Minato, Tokyo, Japan).

The subject of data set [2] is ALP expression in Saos-2 cells. Kind of data set: Saos-2 osteoblast differentiation, RT-qPCR. It is filed as cell-based, human. To be noted: 0.5 and 1 μM, only at the most extended exposure (day 21). Here is the method:
as §1

The test system of data set [3] is COL1A2 expression in Saos-2 cells. Kind of data set: Saos-2 osteoblast differentiation, RT-qPCR. Format: cell-based, human. To be noted: 0.5 and 1 μM, along 3 weeks, osteogenic medium. Here is the method:
as §1

A further data set addresses T1, human C-terminal DNMT3A (Homo sapiens, UniProt Q9Y6K1).
T1 construct: the C-terminal catalytic domain of human DNMT3A (hDNMT3A)
Kind of data set: DNMT3A restriction-based fluorescence assay. Format: biochemical. As to the method:
DNMT3A enzyme inhibition was adapted from the restriction-based fluorescence assay protocol described in Ceccaldi et al.. Briefly, it is performed in a 384-well microplate in a total volume of 50 μL. An oligonucleotide labeled at the 5′ end with biotin is hybridized to his complementary strand labeled at the 3′ end with 6-carboxyfluorescein. The DNA duplex thus formed contains only one single CpG site overlapping with a restriction site of a methylation sensitive restriction enzyme. The duplex is transferred in the wells coated with avidin. Thus, the duplex is fixed to the plate. The methylation reaction is performed by adding human C-terminal DNMT3A at the final concentration of 4 ng/μL in a total volume of 50 μL in the presence of the chemical compound to be tested at the desired concentration and the cofactor SAM at the final concentration of 20 μM. After incubation (1 h at 37 °C), the plate is washed and the methylation sensitive restriction enzyme HpyCH4IV is added. After 1-h incubation at 37 °C, the plate is washed and the fluorescence measured with a PerkinElmer Envision Multilabel Plate Reader (PerkinElmer, Villebon-sur-Yvette, France). The data are expressed as a percentage of inhibition vs. log concentration (M). Data are normalized referring to the “restriction control” (wells coated with labeled duplex not treated nor exposed to DNMT3A, but only cleaved by HpyCH4IV) as the maximum of inhibition (100%) and to the “DMSO control” (wells coated with labeled duplex but treated just with 0.1% DMSO exposed to DNMT3A and then to HpyCH4IV) as the minimum of inhibition (0%; total methylation).

For data set [4], the system named is DNMT3A protein level in PC-3 cells. Nature of the data set: Western blot of DNMT3A protein in PC-3. It is filed as cell-based, human. To be noted: 24 h; 1 μM requested for the effect. The text has this: Cells were lysed in Laemmli buffer; subsequently, the proteins were resolved by sodium dodecyl sulfate-polyacrylamide gel electrophoresis and transferred to a 0.45-μm nitrocellulose membrane (Bio-Rad Laboratories, Hercules, CA). The following primary antibodies were used for immunoblotting: α-E-cadherin (BD Transduction Laboratories, Franklin Lakes, NJ), α-MMP2 (Abcam), α-DNMT3a (Santa Cruz Biotechnologies, Dallas, TX), and α-GAPDH (Millipore Corp., Bedford, MA), used as a loading control. The immune complexes were detected with horseradish peroxidase-conjugated species-specific secondary antiserum (Bio-Rad Laboratories, Milan, Italy) then by enhanced chemiluminescence reaction (Bio-Rad Laboratories, Milan, Italy). Densitometric analysis of protein expression was performed by using the Fiji ImageJ image processing package.
GAPDH was used as a loading control. Blots are representative of two independent experiments
(A western blot detects proteins with antibodies after separation by electrophoresis.)

For another data set, the system named is RPMI1788 cells. Kind of data set: Nuclear morphology analysis (Hoechst/PI). To be noted: 72 h; starting from 5 μM; normal cells. It is filed as cell-based. Here is the method:
(§2) Proliferation and viability of U-937, KG-1, RAJI, PC-3, MDA-MB-231, RPMI1788, PBMCs, and PHA_PBMCs were assessed by trypan blue exclusion assays at the indicated time points. Nuclear morphology changes associated with apoptosis and necrosis were evaluated by fluorescence microscopy after Hoechst and propidium iodide (PI) staining as previously described.
Fig. 6 Nuclear morphology analysis in U-937, RAJI, KG-1, and RPMI1788 cells. Cells were treated with increasing doses of MC3353. Upper panels—after 72 h of treatment, the nuclear morphology was analyzed by fluorescence microscopy after Hoechst and PI staining. Pictures are representative of three independent experiments. Lower panels—the results of cell counting are represented as the mean (± SD) of three independent experiments

For data set [5], the system named is KG-1, U-937, RAJI, PC-3, MDA-MB-231 cancer cells. Kind of data set: Viability in panel of cancer cells. It is filed as cell-based. To be noted: Homo sapiens, 48 h of treatment, range over KG-1, U-937, RAJI, read-out: IC50 values, proliferation/viability in cancer cell panel. Here is the method:
as §2
IC50 values of compounds against cellular viability were determined by using nonlinear regression fitting curves with GraphPad Prism 8 or CalcuSyn software The t test used for statistical analyses was performed with GraphPad Prism 8. All the tests were one-tailed, and a p value < 0.05 was considered statistically significant.

SMILES strings stand for the structures.

T1 sequence (Q9Y6K1 634-912 limits assumed): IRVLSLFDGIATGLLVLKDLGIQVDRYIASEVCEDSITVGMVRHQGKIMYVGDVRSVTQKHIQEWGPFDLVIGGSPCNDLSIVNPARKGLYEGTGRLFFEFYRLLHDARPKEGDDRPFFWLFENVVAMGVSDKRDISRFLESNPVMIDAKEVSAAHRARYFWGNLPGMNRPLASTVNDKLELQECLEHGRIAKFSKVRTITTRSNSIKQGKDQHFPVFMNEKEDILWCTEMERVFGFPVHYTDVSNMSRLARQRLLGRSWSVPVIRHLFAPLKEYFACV

In general, EC50 refers to the concentration that produces a half-maximal response. For the molecule `O=C(Nc1ccc(NC(=O)c2ccc(Nc3ccnc4ccccc34)cc2)cc1)OCc1ccccc1` [MC3353, Benzyl (4-(4-(quinolin-4-ylamino)benzamido)phenyl)carbamate], the “OCN expression, Saos-2” value in data set [1] was “increased OCN expression”. Besides, the “ALP expression, Saos-2” value in data set [2] is listed as “weak induction of ALP expression”. For the same molecule, the “COL1A2 expression, Saos-2” value in data set [3] was “dose-dependently decreased COL1A2 expression”. For the same molecule, the EC50 at human C-terminal DNMT3A (fluorescent assay, C-terminal catalytic domain, read-out: EC50 ± SD, hDNMT3A) was found to be 17 ± 3 µM. Besides, at human C-terminal DNMT3A (ratio of EC50 values), the “fold higher potency than RG-108 against hDNMT3A” value is over 29 fold and the “fold lower potency than SGI-1027 against hDNMT3A” value stood at 20 fold. For the same molecule, the “DNMT3A protein expression level (western blot), PC-3” value in data set [4] is on record as “DNMT3A protein downregulation was observed”. Besides, the “cell death modality, RPMI1788” value with RPMI1788 cells is given as “mixed type of cell death induction, mainly necrosis”. Also, the IC50 in data set [5] was in the range of 300 to 900 nM.
